Test results reported in BindingDB's records for doi:10.1016/j.bmcl.2017.04.089 (Mcdaniel College, 2017).

Biological target: Protein mono-ADP-ribosyltransferase PARP14 (Homo sapiens, UniProt Q460N5)
Assay: Inhibition of recombinant human His6-tagged PARP14 catalytic/WWE domain (1459 to 1801 residues) expressed in Escherichia coli BL21(DE3) preincubated for 15 mins followed by biotinylated NAD+ addition by chemiluminescence assay

Protein mono-ADP-ribosyltransferase PARP14, sequence (Q460N5 whole entry, the tested form may be a part): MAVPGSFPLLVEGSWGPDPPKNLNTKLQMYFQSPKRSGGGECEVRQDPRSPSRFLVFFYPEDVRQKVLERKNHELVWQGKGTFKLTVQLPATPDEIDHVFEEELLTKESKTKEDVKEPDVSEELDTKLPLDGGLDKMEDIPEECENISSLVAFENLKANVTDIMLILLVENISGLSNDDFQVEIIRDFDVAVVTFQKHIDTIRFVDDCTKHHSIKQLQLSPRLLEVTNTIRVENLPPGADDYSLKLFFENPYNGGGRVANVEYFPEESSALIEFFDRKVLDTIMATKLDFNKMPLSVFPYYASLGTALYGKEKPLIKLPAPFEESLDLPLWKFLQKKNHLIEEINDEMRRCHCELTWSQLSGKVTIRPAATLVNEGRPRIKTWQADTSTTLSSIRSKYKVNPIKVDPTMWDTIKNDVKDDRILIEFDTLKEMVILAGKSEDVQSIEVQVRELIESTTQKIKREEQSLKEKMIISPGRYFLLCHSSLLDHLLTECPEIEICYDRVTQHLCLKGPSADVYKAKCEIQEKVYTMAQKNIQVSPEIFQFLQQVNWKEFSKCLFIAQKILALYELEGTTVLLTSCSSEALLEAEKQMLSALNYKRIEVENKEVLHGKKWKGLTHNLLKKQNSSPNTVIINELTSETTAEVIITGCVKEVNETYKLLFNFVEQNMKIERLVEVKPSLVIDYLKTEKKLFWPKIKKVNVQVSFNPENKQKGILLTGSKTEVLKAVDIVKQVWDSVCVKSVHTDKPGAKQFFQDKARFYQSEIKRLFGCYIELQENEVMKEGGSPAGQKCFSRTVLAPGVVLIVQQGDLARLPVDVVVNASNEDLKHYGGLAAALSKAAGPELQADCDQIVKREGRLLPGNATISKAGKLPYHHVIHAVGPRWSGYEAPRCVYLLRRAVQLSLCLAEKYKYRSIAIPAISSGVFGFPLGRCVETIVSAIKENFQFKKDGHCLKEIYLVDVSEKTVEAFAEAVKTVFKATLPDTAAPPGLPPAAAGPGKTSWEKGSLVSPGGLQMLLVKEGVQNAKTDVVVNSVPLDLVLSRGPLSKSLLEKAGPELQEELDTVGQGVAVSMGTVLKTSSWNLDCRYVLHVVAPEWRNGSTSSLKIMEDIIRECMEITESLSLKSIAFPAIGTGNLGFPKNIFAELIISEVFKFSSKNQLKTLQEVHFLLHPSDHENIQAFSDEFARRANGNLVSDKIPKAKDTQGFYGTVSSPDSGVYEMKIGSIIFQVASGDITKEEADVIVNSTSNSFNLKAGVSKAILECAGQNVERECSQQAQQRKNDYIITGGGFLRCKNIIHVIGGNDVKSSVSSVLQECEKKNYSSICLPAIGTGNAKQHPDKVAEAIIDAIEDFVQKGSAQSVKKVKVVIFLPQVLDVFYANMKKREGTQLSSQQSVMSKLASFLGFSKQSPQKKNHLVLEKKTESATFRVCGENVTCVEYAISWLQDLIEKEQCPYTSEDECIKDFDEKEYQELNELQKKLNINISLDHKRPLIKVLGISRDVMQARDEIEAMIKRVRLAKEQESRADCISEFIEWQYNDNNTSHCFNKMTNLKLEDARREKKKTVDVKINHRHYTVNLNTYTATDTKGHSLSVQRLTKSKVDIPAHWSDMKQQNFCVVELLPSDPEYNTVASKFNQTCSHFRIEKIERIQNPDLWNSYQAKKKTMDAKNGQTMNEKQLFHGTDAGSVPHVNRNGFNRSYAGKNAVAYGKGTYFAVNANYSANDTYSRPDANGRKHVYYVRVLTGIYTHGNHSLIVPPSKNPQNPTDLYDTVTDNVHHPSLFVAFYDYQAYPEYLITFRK

An IC50 of 1020 nM was found for `NC(=O)c1cccc(NC(=O)/C=C\C(=O)N2CCCC(Oc3ccccc3)C2)c1` (stereo unspecified) in this work.
